Results published in paper PMC9405973, “Altered Conformational Landscape upon Sensing Guanine Nucleotides in a Disease Mutant of Elongation Factor-like 1 (EFL1) GTPase” (Biomolecules, 2022).
Values joined by “and” are separate entries in the source; they are usually repeats but may differ in a detail not shown here. Equal values may be shown once.

Tests used:
Efl1 R1086Q P151L = target: T1, Efl1 R1086Q P151L (Saccharomyces cerevisiae, UniProt P53893, P151L/R1086Q); test: ITC: binding of GTP to double mutant Efl1 R1086Q P151L; conditions: +Mg^2+
T1 construct: made in house; host or cells: Saccharomyces cerevisiae
T1 sequence (P53893 whole entry P151L/R1086Q): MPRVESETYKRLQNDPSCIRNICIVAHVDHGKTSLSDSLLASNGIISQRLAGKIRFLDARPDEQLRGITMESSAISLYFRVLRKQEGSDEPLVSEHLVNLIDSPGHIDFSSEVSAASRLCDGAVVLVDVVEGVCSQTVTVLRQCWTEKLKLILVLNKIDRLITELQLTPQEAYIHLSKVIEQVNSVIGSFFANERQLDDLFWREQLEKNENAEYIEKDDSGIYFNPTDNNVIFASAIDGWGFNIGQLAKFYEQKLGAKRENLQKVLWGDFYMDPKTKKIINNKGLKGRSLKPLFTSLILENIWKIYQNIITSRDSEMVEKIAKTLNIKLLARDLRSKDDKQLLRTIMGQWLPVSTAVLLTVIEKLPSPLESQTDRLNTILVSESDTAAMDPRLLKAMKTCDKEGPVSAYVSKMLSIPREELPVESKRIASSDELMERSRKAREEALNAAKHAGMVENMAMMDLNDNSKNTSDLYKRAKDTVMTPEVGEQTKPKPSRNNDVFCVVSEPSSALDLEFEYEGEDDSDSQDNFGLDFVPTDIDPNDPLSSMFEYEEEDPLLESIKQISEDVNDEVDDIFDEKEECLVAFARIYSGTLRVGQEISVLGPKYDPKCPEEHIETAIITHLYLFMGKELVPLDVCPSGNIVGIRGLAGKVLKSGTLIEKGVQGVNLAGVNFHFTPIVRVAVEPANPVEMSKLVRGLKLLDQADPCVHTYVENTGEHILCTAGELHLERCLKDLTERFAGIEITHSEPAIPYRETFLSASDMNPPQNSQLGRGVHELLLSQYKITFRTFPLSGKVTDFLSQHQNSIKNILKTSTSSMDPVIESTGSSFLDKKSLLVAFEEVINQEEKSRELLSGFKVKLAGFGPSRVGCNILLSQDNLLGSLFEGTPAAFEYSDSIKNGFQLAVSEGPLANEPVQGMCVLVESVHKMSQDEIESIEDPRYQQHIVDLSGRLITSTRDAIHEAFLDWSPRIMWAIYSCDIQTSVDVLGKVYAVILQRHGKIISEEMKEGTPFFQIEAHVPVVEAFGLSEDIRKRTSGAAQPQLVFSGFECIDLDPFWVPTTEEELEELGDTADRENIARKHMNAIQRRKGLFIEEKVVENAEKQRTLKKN

wild-type Efl1 = test: ITC: binding of guanine nucleotides or Sdo1 to wild-type Efl1 (data of ref 6); design: species or system Saccharomyces cerevisiae; conditions: native protein

Nc1nc2c(ncn2[C@@H]2O[C@H](COP(=O)(O)OP(=O)(O)OP(=O)(O)O)[C@@H](O)[C@H]2O)c(=O)[nH]1 [GTP]
-TΔSb (Efl1 R1086Q P151L; 25 °C): -4.8 kcal/mol
ΔGb (Efl1 R1086Q P151L; 25 °C): -6.5 kcal/mol
ΔHb (Efl1 R1086Q P151L; 25 °C): -1.7 ± 0.1 kcal/mol
-TΔSb (Efl1 R1086Q P151L; 30 °C): -4.1 kcal/mol
Nconfres (number of residues changing conformation, absolute value) (Efl1 R1086Q P151L; 30 °C): 19
Nconfrotb (number of routable bonds changing conformation, absolute value) (Efl1 R1086Q P151L; 30 °C): 19
ΔCpconf (Efl1 R1086Q P151L; 30 °C): −195 cal mol^−1 K^−1
ΔCprb (Efl1 R1086Q P151L; 30 °C): −25 cal mol^−1 K^−1
ΔGb (Efl1 R1086Q P151L; 30 °C): -6.6 kcal/mol
ΔHb (Efl1 R1086Q P151L; 30 °C): -2.5 ± 0.1 kcal/mol
ΔSb (Efl1 R1086Q P151L; 30 °C): 13 cal mol^−1 K^−1
ΔSconf (Efl1 R1086Q P151L; 30 °C): −31 cal mol^−1 K^−1
ΔSsolv (Efl1 R1086Q P151L; 30 °C): 53 cal mol^−1 K^−1
−ΔASAconf (Efl1 R1086Q P151L; 30 °C): 875 Å^2
-TΔSb (Efl1 R1086Q P151L; 35 °C): -2.8 kcal/mol
ΔGb (Efl1 R1086Q P151L; 35 °C): -6.7 kcal/mol
ΔHb (Efl1 R1086Q P151L; 35 °C): -3.9 ± 0.1 kcal/mol
ΔCpb (Efl1 R1086Q P151L; from ΔHb at 25–35 °C): −220 ± 35 cal mol^−1 K^−1 and −220 cal mol^−1 K^−1
Kd (Efl1 R1086Q P151L; 25 °C): 18 ± 3 µM
Kd (Efl1 R1086Q P151L; 30 °C): 17 ± 2 µM
Kd (Efl1 R1086Q P151L; 35 °C): 18 ± 2 µM
overall heat-capacity change to drive the protein into ternary complex GTPase•GTP•Sdo1 (wild-type Efl1): −950 cal mol^−1 K^−1
